In brackets after ≈: the same amount, converted by molar mass. Like-named read-outs stand apart in the source and are kept apart here.
Assays:
Format in all cases: physicochemical
[1] = Evaluation of closed container thermal degradation (solid state, 1 week; HPLC, XRPD, color); conditions: tight container; for Bulk (XRPD): 50° C. and 80° C.
Procedure: 5-(5-((1R,2S)-2-fluorocyclopropyl)-1,2,4-oxadiazol-3-yl)-2-methylphenyl)imidazo[1,2-a]pyridine-3-carboxamide Form A (10 mg) was placed in a closed vial at 50° C. and 80° C. chamber for 1 week. The initial purity of (5-(5-((1R,2S)-2-fluorocyclopropyl)-1,2,4-oxadiazol-3-yl)-2-methylphenyl)imidazo[1,2-a]pyridine-3-carboxamide Form A was 99.7%.
The samples were examined by XRPD for physical stability determination and by HPLC for chemical stability determination indicated by the presence of degradation products (DP).
The HPLC method used is described in Example 13-1. The color (CL) of the samples was evaluated by visual observation.
(5-(5-((1R,2S)-2-fluorocyclopropyl)-1,2,4-oxadiazol-3-yl)-2-methylphenyl)imidazo[1,2-a]pyridine-3-carboxamide fumaric acid co-crystal (10 mg) was placed in a closed vial at 50° C. and 80° C. chamber for 1 week. The initial purity of (5-(5-((1R,2S)-2-fluorocyclopropyl)-1,2,4-oxadiazol-3-yl)-2-methylphenyl)imidazo[1,2-a]pyridine-3-carboxamide Fumaric acid co-crystal was 99.7%.
The HPLC method used is described in Example 19-1. The color (CL) of the samples was evaluated by visual observation.

[2] = Water activity evaluation - crystal modification (water/ethanol, 2 weeks, XRPD)
Procedure: 5-(5-((1R,2S)-2-fluorocyclopropyl)-1,2,4-oxadiazol-3-yl)-2-methylphenyl)imidazo[1,2-a]pyrindine-3-carboxamide Form A (10 mg) was placed in a vials containing various ratios of water and ethanol and allowed to equilibrate for 2 weeks. The samples were then examined by XRPD for physical stability determination. The results are given below in Table 5 which show conversion to Form HA and Form HB occurs depending on the water activity. […]

[3] = Solubility in various media at 25° C. after 24 hours equilibration (HPLC); conditions: for solubility at 24 h: thermodynamic from solid, read-out: Conc. (solubility)
Procedure: (§1) 5-(5-((I R,2S)-2-fluorocyclopropyl)-1,2,4-oxadiazol-3-yl)-2-methylphenyl)imidazo[1,2-a]pyridine-3-carboxamide Form A (10 mg) in various media (1 mL) were mixed in a glass vial to make a slurry. Each sample was equilibrated at 25° C. for 24 hrs, and centrifuged at 13400 r.p.m. for 3 mins with 0.2 μm membrane to separate solids from liquids. The liquid was used to measure solubility by HPLC. Table 6 provides solubility data of 5-(5-((1R,2S)-2-fluorocyclopropyl)-1,2,4-oxadiazol-3-yl)-2-methylphenyl)imidazo[1,2-a]pyridine-3-carboxamide Form A at 25° C. after 24 hours equilibration and the final pH of the sample.
as §1, with “5-(5-((1R,2S)-2-fluorocyclopropyl)-1,2,4-oxadiazol-3-yl)-2-methylphenyl)imidazo[1,2-a]pyridine-3-carboxamide fumaric acid co-crystal” for “5-(5-((I R,2S)-2-fluorocyclopropyl)-1,2,4-oxadiazol-3-yl)-2-methylphenyl)imidazo[1,2-a]pyridine-3-carboxamide Form A”, “10” for “6”, “fumaric acid co-crystal” for “Form A”

[4] = Water activity 0.000, Water/ethanol (v/v) 0.000/1.000, 2 weeks
[5] = Water activity 0.099, Water/ethanol (v/v) 0.013/0.987, 2 weeks
[6] = FaSSIF-V2, pH 6.5, 25° C., LOQ = Limit of Quantitation +/− 0.5 μg/ml
[7] = Water, 25° C., LOQ = Limit of Quantitation +/− 0.5 μg/ml
[8] = pH 4.7, acetate buffer, 25° C., LOQ = Limit of Quantitation +/− 0.5 μg/ml
[9] = pH 6.8, phosphate buffer, 25° C.
[10] = pH 6.8, phosphate buffer, 25° C., LOQ = Limit of Quantitation +/− 0.5 μg/ml
[11] = pH 10.0, borate buffer, 25° C., LOQ = Limit of Quantitation +/− 0.5 μg/ml

Bulk (XRPD) [1] | CL (color) ([1]; 50° C.) | DP (%) degradation products, Bulk (HPLC) ([1]; 50° C.) [%] | CL (color) ([1]; 80° C.) | DP (%) degradation products, Bulk (HPLC) ([1]; 80° C.) [%] | Modification (XRPD) [2, 4] | Modification (XRPD) [2, 5] | Final pH ([3]; FaSSIF-V2, pH 6.5, 25° C.) | Conc. (solubility) [3, 6] | Final pH ([3]; FeSSIF-V2, pH 5.8, 25° C.) | Conc. (solubility) ([3]; SGF pH 2.0, 25° C.) [mg/mL] | Final pH ([3]; SGF pH 2.0, 25° C.) | Final pH ([3]; Water, 25° C.) | Conc. (solubility) [3, 7] | Final pH ([3]; pH 1.0 (0.1N HCl), 25° C.) | Final pH ([3]; pH 2.0 (0.01N HCl), 25° C.) | Final pH ([3]; pH 4.7, acetate buffer, 25° C.) | Conc. (solubility) [3, 8] | Final pH [3, 9] | Conc. (solubility) [3, 10] | Compound | other results
Bulk (XRPD): No change | No change | 0.06 | No change | 0.07 | No change | No change | 6.40 | LOQ | 5.63 | 0.64 | 2.10 | 7.91 | LOQ | 1.20 | 2.06 | 4.78 | LOQ | 6.77 | LOQ | Cc1ccc(-c2noc([C@H]3C[C@@H]3F)n2)cc1NC(=O)c1cnc2ccccn12 [Form A, N-(5-(5-((1R,2S)-2-fluorocyclopropyl)-1,2,4-oxadiazol-3-yl)-2-methylphenyl)imidazo[1,2-a]pyridine-3-carboxamide] | solubility at 24 h ([3]; 0.01N HCl, 25 °C, pH 2, simulated gastric fluid, pH 2.0 (0.01N HCl), 25° C.): 0.21 mg/mL (≈ 556 µM); solubility at 24 h ([3]; 0.1N HCl, 25 °C, pH 1, simulated gastric fluid, pH 1.0 (0.1N HCl), 25° C.): 0.44 mg/mL (≈ 1170 µM); solubility at 24 h ([3]; FeSSIF-V2, 25 °C, pH 5.8, fessif, FeSSIF-V2, pH 5.8, 25° C.): 0.015 mg/mL (≈ 39.7 µM); Final pH ([3]; pH 10.0, borate buffer, 25° C.): 10.02; Conc. (solubility) [3, 11]: LOQ
Bulk (XRPD): No change | No change | 0.15 | No change | 0.08 | No change | No change | 4.66 | LOQ | 4.75 | 0.18 | 1.94 | 4.26 | LOQ | 0.95 | 1.98 | 4.51 | LOQ | 5.79 | LOQ | Cc1ccc(-c2noc([C@H]3C[C@@H]3F)n2)cc1NC(=O)c1cnc2ccccn12 [fumaric acid co-crystal, N-(5-(5-((1R,2S)-2-fluorocyclopropyl)-1,2,4-oxadiazol-3-yl)-2-methylphenyl)imidazo[1,2-a]pyridine-3-carboxamide fumaric acid co-crystal] | Modification (XRPD) ([2]; Water activity 0.205, Water/ethanol (v/v) 0.030/0.970, 2 weeks): No change; Modification (XRPD) ([2]; Water activity 0.298, Water/ethanol (v/v) 0.048/0.952, 2 weeks): No change; Modification (XRPD) ([2]; Water activity 0.398, Water/ethanol (v/v) 0.073/0.927, 2 weeks): No change; Modification (XRPD) ([2]; Water activity 0.502, Water/ethanol (v/v) 0.104/0.896, 2 weeks): No change; Modification (XRPD) ([2]; Water activity 0.605, Water/ethanol (v/v) 0.145/0.855, 2 weeks): No change; Modification (XRPD) ([2]; Water activity 0.700, Water/ethanol (v/v) 0.198/0.802, 2 weeks): No change; Modification (XRPD) ([2]; Water activity 0.802, Water/ethanol (v/v) 0.296/0.704, 2 weeks): No change; Modification (XRPD) ([2]; Water activity 0.900, Water/ethanol (v/v) 0.550/0.450, 2 weeks): No change; Modification (XRPD) ([2]; Water activity 1.000, Water/ethanol (v/v) 1.000/0.000, 2 weeks): No change; Conc. (solubility) ([3]; FeSSIF-V2, pH 5.8, 25° C.): 0.008 mg/mL; Conc. (solubility) ([3]; pH 1.0 (0.1N HCl), 25° C.): 0.41 mg/mL; Conc. (solubility) ([3]; pH 2.0 (0.01N HCl), 25° C.): 0.19 mg/mL; Final pH ([3]; pH 10.0, borate buffer, 25° C.): 8.76; Conc. (solubility) [3, 11]: LOQ

Source: patent publication US20220194936A1, “CRYSTALLINE FORMS OF N-(5-(5-((1R,2S)-2-FLUOROCYCLOPROPYL)-1,2,4-OXADIAZOL-3-YL)-2-METHYLPHENYL)IMIDAZO[1,2-A]PYRIDINE-3-CARBOXAMIDE” (Novartis AG, priority 2019, published 2022)
